Our source for the IC50 values is patent publication US11739098B2 (BRISTOL-MYERS SQUIBB COMPANY, priority 2017, dated 2023).

Assay type in all cases: cell-based
In one experiment the target is T1, human TLR8 (Homo sapiens, UniProt Q9NR97).
T1 construct: host or cells: HEK-Blue cells (HEK293-derived reporter line)
T1 sequence (Q9NR97 27-1041): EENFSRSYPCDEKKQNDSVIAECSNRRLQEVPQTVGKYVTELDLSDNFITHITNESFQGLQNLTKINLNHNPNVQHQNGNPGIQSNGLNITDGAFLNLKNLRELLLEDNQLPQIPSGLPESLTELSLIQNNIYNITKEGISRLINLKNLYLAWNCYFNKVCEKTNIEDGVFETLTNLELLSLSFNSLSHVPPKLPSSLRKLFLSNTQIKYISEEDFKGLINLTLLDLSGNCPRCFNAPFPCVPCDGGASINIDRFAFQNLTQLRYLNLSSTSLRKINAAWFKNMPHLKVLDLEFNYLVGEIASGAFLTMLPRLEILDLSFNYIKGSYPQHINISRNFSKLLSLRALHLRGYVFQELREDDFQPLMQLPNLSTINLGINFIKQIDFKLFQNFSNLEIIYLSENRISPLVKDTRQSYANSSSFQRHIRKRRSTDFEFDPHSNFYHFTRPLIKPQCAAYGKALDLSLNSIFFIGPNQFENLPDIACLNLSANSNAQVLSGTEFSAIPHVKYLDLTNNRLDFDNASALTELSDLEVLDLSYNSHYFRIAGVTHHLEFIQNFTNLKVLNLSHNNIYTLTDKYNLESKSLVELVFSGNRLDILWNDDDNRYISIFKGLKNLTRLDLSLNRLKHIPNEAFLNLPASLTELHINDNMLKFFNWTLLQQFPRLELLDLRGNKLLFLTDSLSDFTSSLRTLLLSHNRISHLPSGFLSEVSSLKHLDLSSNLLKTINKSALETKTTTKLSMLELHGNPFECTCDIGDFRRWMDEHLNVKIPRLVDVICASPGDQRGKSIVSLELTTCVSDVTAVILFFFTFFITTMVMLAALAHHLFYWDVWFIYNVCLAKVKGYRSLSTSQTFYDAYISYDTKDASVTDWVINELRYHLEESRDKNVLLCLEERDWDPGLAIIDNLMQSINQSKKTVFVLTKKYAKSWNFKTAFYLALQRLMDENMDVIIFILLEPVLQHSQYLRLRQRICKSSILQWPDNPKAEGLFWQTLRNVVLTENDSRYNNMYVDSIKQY
As to the kind of experiment: TLR8 inhibition reporter assay (HEK-Blue cells, SEAP reporter, R848 stimulation). To be noted: HEK-Blue cells overexpressing human TLR8, SEAP reporter, R848 15.9 μM. The procedure, abridged: (§1)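 Read-out is SEAP activity in HEK-Blue detection medium after 22 h at 37 °C, converted to percent inhibition against agonist-plus-DMSO and reference-inhibitor controls. Cells saw compound (0.05 nM–50 μM, 30 min, room temperature) before gardiquimod 7.5 μM, R848 15.9 μM or ODN2006 5 nM for TLR7, TLR8 and TLR9, respectively.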

The target of the next experiment is T2, human TLR9 (Homo sapiens, UniProt Q9NR96).
T2 construct: host or cells: HEK-Blue cells (HEK293-derived reporter line)
T2 sequence (Q9NR96 26-1032): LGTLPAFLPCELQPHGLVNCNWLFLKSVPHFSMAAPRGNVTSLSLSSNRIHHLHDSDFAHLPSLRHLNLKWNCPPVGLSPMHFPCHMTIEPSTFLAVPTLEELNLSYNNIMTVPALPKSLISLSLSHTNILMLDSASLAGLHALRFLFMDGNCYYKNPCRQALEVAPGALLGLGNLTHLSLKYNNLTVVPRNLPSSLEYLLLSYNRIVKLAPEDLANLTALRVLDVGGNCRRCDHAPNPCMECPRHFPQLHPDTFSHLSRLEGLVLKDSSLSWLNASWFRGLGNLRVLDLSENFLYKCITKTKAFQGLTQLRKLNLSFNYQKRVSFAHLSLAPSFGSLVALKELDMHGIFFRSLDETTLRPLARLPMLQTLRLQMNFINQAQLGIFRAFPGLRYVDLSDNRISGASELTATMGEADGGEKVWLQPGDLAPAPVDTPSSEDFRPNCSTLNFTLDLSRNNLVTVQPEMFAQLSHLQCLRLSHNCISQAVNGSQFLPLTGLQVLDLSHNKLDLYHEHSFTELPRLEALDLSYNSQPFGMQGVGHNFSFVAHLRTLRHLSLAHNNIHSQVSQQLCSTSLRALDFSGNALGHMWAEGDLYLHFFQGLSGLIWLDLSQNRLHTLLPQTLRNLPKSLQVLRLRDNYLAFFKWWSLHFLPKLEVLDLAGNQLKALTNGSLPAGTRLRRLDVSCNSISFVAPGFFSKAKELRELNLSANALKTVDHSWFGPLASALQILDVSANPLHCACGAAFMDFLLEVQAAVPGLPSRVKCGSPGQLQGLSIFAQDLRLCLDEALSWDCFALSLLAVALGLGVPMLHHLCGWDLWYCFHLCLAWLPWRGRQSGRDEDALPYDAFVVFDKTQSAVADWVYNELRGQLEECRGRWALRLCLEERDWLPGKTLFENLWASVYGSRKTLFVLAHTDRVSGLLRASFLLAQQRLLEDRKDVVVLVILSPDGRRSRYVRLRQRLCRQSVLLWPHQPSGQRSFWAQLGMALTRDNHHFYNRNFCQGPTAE
The experiment in a line: TLR9 inhibition reporter assay (HEK-Blue cells, SEAP reporter, ODN2006 stimulation). To be noted: HEK-Blue cells overexpressing human TLR9, SEAP reporter, ODN2006 5 nM. In a few lines: as §1
In general terms: A reporter such as luciferase makes a cellular process visible.

A further experiment deals with T3, human TLR7 (Homo sapiens, UniProt Q9NYK1).
T3 construct: host or cells: HEK-Blue cells (HEK293-derived reporter line)
T3 sequence (Q9NYK1 27-1049): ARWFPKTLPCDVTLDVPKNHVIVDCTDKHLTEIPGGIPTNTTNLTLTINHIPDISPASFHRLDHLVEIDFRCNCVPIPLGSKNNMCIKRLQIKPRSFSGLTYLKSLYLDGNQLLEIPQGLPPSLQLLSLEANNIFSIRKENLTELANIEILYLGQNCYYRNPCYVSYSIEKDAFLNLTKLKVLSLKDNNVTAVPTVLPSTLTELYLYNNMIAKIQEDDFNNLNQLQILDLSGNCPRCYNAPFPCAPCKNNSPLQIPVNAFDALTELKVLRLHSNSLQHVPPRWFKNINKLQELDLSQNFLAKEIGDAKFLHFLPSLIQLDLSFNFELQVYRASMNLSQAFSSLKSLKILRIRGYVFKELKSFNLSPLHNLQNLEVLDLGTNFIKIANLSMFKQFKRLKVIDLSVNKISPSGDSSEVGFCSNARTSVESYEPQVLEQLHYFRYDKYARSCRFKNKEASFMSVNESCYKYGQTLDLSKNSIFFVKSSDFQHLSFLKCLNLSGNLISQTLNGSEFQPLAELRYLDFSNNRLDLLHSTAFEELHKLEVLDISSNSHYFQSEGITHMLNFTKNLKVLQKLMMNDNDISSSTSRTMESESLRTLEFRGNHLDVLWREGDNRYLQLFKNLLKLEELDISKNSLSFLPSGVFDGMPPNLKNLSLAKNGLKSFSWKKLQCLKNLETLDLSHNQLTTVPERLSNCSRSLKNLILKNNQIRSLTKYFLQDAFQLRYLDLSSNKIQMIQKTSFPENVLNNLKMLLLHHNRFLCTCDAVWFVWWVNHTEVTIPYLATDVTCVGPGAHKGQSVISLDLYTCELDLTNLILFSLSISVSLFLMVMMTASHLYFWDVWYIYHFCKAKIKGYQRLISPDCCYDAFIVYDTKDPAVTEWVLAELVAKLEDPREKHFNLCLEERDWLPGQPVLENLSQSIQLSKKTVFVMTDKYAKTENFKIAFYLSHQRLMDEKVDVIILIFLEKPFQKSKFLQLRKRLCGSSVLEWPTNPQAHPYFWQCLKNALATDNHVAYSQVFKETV
As to the kind of experiment: TLR7 inhibition reporter assay (HEK-Blue cells, SEAP reporter, gardiquimod stimulation). To be noted: HEK-Blue cells overexpressing human TLR7, SEAP reporter, gardiquimod 7.5 μM. In a few lines: as §1

The term IC50 denotes the concentration needed to halve the response being measured. For the compound `CC(C)c1c(-c2ccnc3[nH]ncc23)[nH]c2ccc(C3CCN(C(=O)CCn4ccnc4)CC3)cc12` [Example 642, 3-(1H-imidazol-1-yl)-1-(4-(3-isopropyl-2-(1H-pyrazolo[3,4-b]pyridin-4-yl)-1H-indol-5-yl)piperidin-1-yl)propan-1-one], the values for the IC50 against human TLR8, against human TLR9 and against human TLR7 were less than 100 nM, 1000 to 50000 nM and less than 100 nM, respectively.
Take `Cc1cc2ncnn2nc1-c1[nH]c2ccc(C3CCNCC3)cc2c1C(C)C` [Example 31, 6-(3-isopropyl-5-(piperidin-4-yl)-1H-indol-2-yl)-7-methyl-[1,2,4]triazolo[1,5-b]pyridazine]: the IC50 on human TLR8 was less than 100 nM; on human TLR9, 1000 to 50000 nM; against human TLR7, less than 100 nM.
Take `Cc1ccc(-c2[nH]c3ccc(C4CCN(CC(=O)N(C)C)CC4)cc3c2C(C)C)c2ncnn12` [Example 385, 2-(4-(3-isopropyl-2-(5-methyl-[1,2,4]triazolo[1,5-a]pyridin-8-yl)-1H-indol-5-yl)piperidin-1-yl)-N,N-dimethylacetamide]: the concentration for half-maximal inhibition (IC50) was less than 100 nM at human TLR8, 1000 to 50000 nM against human TLR9 and less than 100 nM on human TLR7.
For `Cc1cc(-c2[nH]c3ccc(C4CCN(C(=O)CN(C)C)CC4)cc3c2C(C)C)cn2ccnc12` [Example 528, 2-(dimethylamino)-1-(4-(3-isopropyl-2-(8-methylimidazo[1,2-a]pyridin-6-yl)-1H-indol-5-yl)piperidin-1-yl)ethan-1-one], the values for the IC50 against human TLR8, against human TLR9 and against human TLR7 were less than 100 nM, 100 to 1000 nM and less than 100 nM, respectively.
Turning to `Cc1cc(-c2[nH]c3ccc(C4CCN(CC(=O)N(C)C)CC4)cc3c2C(C)C)nn2ccnc12` [Example 447, 2-(4-(3-isopropyl-2-(8-methylimidazo[1,2-b]pyridazin-6-yl)-1H-indol-5-yl)piperidin-1-yl)-N,N-dimethylacetamide], the values for the 50% inhibitory concentration (IC50) against human TLR8, against human TLR9 and against human TLR7 were less than 100 nM, 1000 to 50000 nM and less than 100 nM, respectively.
With `CC(C)c1c(-c2cc(N)nc3[nH]cnc23)[nH]c2ccc(C3CCNCC3)cc12` [Example 228, 7-(3-isopropyl-5-(piperidin-4-yl)-1H-indol-2-yl)-3H-imidazo[4,5-b]pyridin-5-amine], the half-inhibitory concentration (IC50) at human TLR8 was less than 100 nM; against human TLR9 it was 100 to 1000 nM; on human TLR7, less than 100 nM.
For `CNC(=O)CN1CCC(c2ccc3[nH]c(-c4ccc5nccn5c4)c(C(C)C)c3c2)CC1` [Example 403, 2-(4-(2-(imidazo[1,2-a]pyridin-6-yl)-3-isopropyl-1H-indol-5-yl)piperidin-1-yl)-N-methylacetamide], the figures for the IC50 at human TLR8, on human TLR9 and against human TLR7 were less than 100 nM, 1000 to 50000 nM and less than 100 nM, respectively.
For the compound `CNC(=O)CN1CCC(c2ccc3[nH]c(-c4cc(CO)c5nccn5c4)c(C(C)C)c3c2)CC1` [Example 341, 2-(4-(2-(8-(hydroxymethyl)-6-imidazo[1,2-a]pyridinyl-6-yl)-3-isopropyl-1H-indol-5-yl)piperidin-1-yl)-N-methylacetamide], the half-inhibitory concentration (IC50) against human TLR8 was less than 100 nM; on human TLR9, 100 to 1000 nM; at human TLR7, less than 100 nM.
Take `CNC(=O)CN1CCC(c2ccc3[nH]c(-c4cccn5ncnc45)c(C(C)C)c3c2)CC1` [Example 361, 2-(4-(2-([1,2,4]triazolo[1,5-a]pyridin-8-yl)-3-isopropyl-1H-indol-5-yl)piperidin-1-yl)-N-methylacetamide]: the half-inhibitory concentration (IC50) on human TLR8 fell in the range of 100 to 1000 nM; against human TLR9 it was 1000 to 50000 nM; on human TLR7, 100 to 1000 nM.
Take `CCc1c(-c2cnc3cn[nH]c3c2)[nH]c2ccc(C3CCN(C4CCN(C(C)C)CC4)CC3)cc12` [Example 836, 6-(3-ethyl-5-(1′-isopropyl-[1,4′-bipiperidin]-4-yl)-1H-indol-2-yl)-1H-pyrazolo[4,3-b]pyridine]: the IC50 on human TLR8, on human TLR9 and on human TLR7 was less than 100 nM throughout.
Regarding `Cc1c(-c2ccnc3[nH]nc(C)c23)[nH]c2ccc(C3CCNCC3)cc12` [Example 218, 3-methyl-4-(3-methyl-5-(piperidin-4-yl)-1H-indol-2-yl)-1H-pyrazolo[3,4-b]pyridine], the IC50 against human TLR8 is less than 100 nM; against human TLR9, 100 to 1000 nM; against human TLR7, less than 100 nM.
For the compound `Cc1c(-c2ncnn3cccc23)[nH]c2ccc(C3CCN(C4CCN(C(C)C)CC4)CC3)cc12` [Example 806, 4-(5-(1′-isopropyl-[1,4′-bipiperidin]-4-yl)-3-methyl-1H-indol-2-yl)pyrrolo[2,1-f][1,2,4]triazine], the IC50 against human TLR8 was less than 100 nM; against human TLR9, less than 100 nM; at human TLR7, 1000 to 50000 nM.
Regarding `CC(C)c1c(-c2ccc(C#N)c3ncccc23)[nH]c2ccc(C3CCN(C(=O)CN(C)C)CC3)cc12` [Example 506, 5-(5-(1-(dimethylglycyl)piperidin-4-yl)-3-isopropyl-1H-indol-2-yl)quinoline-8-carbonitrile], the results for the IC50 on human TLR8, against human TLR9 and against human TLR7 were less than 100 nM, 1000 to 50000 nM and less than 100 nM, respectively.
